Results as given in patent publication US7737250B2, “Peptides for treating axonal damage, inhibition of neurotransmitter release and pain transmission, and blocking calcium influx in neurons” (Mount Sinai School of Medicine of New York University, priority 2003, dated 2010).

System: cell-surface myc-L1-CAM on ND-7 cells
Assay: L1-CAM diffusion behavior assay: movement of 9E10-coated beads bound to myc-L1-CAM (video microscopy, laser tweezers)
Type: cell-based, rat
Text: Video microscopy, laser tweezers, and data analysis: The 9E10-coated latex beads were then placed and held with an optical gradient laser trap on the surface of transfected cells at a distance of between 0.5 and 1 μm from the leading edge for 2 seconds. The laser trap consisted of a Titanium Sapphire (Coherent; model 890) solid state laser pumped by a 5 W frequency-doubled Neodymnium Vanadate laser (Verdi; Coherent) and tuned to 800 nm. This wavelength was previously determined to generate the fewest heating artifacts in live cells (Svoboda and Block. Biomol Struct 1994;23:-247-285 and Choquet et al. Cell 1997;88:39-48). Laser power at the output of the Titanium Sapphire laser was 40 mW, and prepared beads were placed and held on the cell surface for less than 3 sec to further reduce the possibility of heating artifacts. Laser light was introduced through the television port of the Axiovert microscope.
Video images of bead movement were collected using a newvicon camera (Dage MTI; VE-1000N) and background subtraction and contrast enhancement were carried using a Hamamatsu Argus 20 image processor. Raw data were recorded to sVHS video tape for subsequent analysis. Video recordings were subsequently digitized onto an Intel processor-based computer running the Isee imaging software (Isee Imaging) running under Red Hat Linux 7.1. Quantification of bead movement was carried out in Isee. Diffusional analysis was carried out using a custom spreadsheet in Excel (Microsoft). This spreadsheet carries out 4 operations: first, it scales the data from pixel measurements to nm using the appropriate scale factor (determined by the magnification used to observe bead movement); second, it subtracts the first point from all of the data, to set the origin at 0,0 (x,y coordinates); third, it rotates (in two dimensional space) the data around the origin so that the orientation of the cell is the same from trial to trial (here, the data was set so that the cells all face to the left); and fourth, the spreadsheet calculates the mean square displacement (MSD) data which are used to calculate diffusion coefficients and bead velocity. Individual traces were scored blind for classes of behavior. Statistical analysis of percentages of trials was carried out using chi-squared analysis or a Fisher's exact probability test.
MSD values were calculated as previously described (see Qian et al, 1991; Biophysical Journal 60 p910). For these calculations, the squared displacement (a^2+b^2; where a=xn+t−xn, b=a=yn+t−yn for any two points separated by time t) of the bead was calculated between two points in the data set. The mean of the squared displacements was calculated for each time interval t=1 to m, where m is the time interval that equals 10% of the length of the data set. The mean displacement was plotted with respect to time giving a curve with a linear or quadratic shape, depending on the behavior of the bead. Diffusion rates and velocity were calculated by fitting the curve with the equation MSD=4Dt+v^2t^2, where D is the diffusion coefficient, v is the velocity and t is time. D and v were calculated for each bead independently and presented as averages or as individual values, as described in each case.
Cell culture and transfection: ND-7 cells (rat neuroblastoma/DRG hybrid cells) were plated and transfected with pMyc-L1-CAM, pMyc-L1-CAM-YF, pMyc-L1-CAM-YH, or pMyc-L1-CAM-STOP expression constructs as described in Example 3, supra.
In some instances, ND-7 cells transfected with pMyc-L1-CAM were treated with the cytoskeletal inhibitor cytochalasin D (2 μM; Sigma) or nocadazole (1 μM; Sigma). For these experiments treatment with DMSO (0.01%) vehicle alone served as the negative control.
In some instances, ND-7 cells transfected with pMyc-L1-CAM were treated with neural growth factor (NGF) to stimulate phosphorylation of tyrosine 1229 (Y1229) of the L1-CAM cytoplasmic domain, and thereby inhibit ankyrin binding. […]

[1] = ND-7 cells expressing myc-L1-CAM, 1.4 μg/ml peptide for 30 minutes

Sequence	percentage of beads showing stationary behavior [1]	percentage of trials undergoing retrograde movement [1]	bead velocity compared to untreated controls (1.4 μg/ml peptide)
RQIKIWFQNRRMKWKKQFNEDGSFIGQF [AP-YF]	reduced	increase	
RQIKIWFQNRRMKWKKFQGIFSGDENFQ [AP-Scramble]			no significant effect
